Measurements taken from PubChem BioAssay (NCI).
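48-hour exposure; five concentrations; linearly interpolated endpoints. GI50 marks 50% less growth. TGI: concentration producing complete growth inhibition.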

Legend:
Assay in all cases: growth of human tumour cells (NCI), 48 h
MCF7 breast = system: MCF7 breast
UACC-257 melanoma = system: UACC-257 melanoma
IGROV1 ovarian = system: IGROV1 ovarian
DU-145 prostate = system: DU-145 prostate
NCI/ADR-RES ovarian = system: NCI/ADR-RES ovarian
MALME-3M melanoma = system: MALME-3M melanoma
HL-60(TB) leukemia = system: HL-60(TB) leukemia
BT-549 breast = system: BT-549 breast
SNB-75 CNS = system: SNB-75 CNS
A549 NSCLC = system: A549 NSCLC
OVCAR-5 ovarian = system: OVCAR-5 ovarian
TK-10 renal = system: TK-10 renal
NCI-H460 lung = system: NCI-H460 lung
MDA-MB-231 breast = system: MDA-MB-231 breast
HOP-92 NSCLC = system: HOP-92 NSCLC
HS 578T breast = system: HS 578T breast
M14 melanoma = system: M14 melanoma
EKVX NSCLC = system: EKVX NSCLC
KM12 colon = system: KM12 colon
RPMI-8226 leukemia = system: RPMI-8226 leukemia
NCI-H522 lung = system: NCI-H522 lung
SK-MEL-5 melanoma = system: SK-MEL-5 melanoma
HCT-15 colon = system: HCT-15 colon
SF-295 CNS = system: SF-295 CNS
ACHN renal = system: ACHN renal
HOP-62 NSCLC = system: HOP-62 NSCLC
SK-MEL-2 melanoma = system: SK-MEL-2 melanoma
SK-OV-3 ovarian = system: SK-OV-3 ovarian
SNB-19 CNS = system: SNB-19 CNS
MOLT-4 leukemia = system: MOLT-4 leukemia
UACC-62 melanoma = system: UACC-62 melanoma
T-47D breast = system: T-47D breast
A498 renal = system: A498 renal
HCT-116 colon = system: HCT-116 colon
CAKI-1 renal = system: CAKI-1 renal
786-0 renal = system: 786-0 renal
SK-MEL-28 melanoma = system: SK-MEL-28 melanoma
OVCAR-8 ovarian = system: OVCAR-8 ovarian
RXF 393 renal = system: RXF 393 renal
NCI-H23 lung = system: NCI-H23 lung
SN12C renal = system: SN12C renal
U251 CNS = system: U251 CNS
HT29 colon = system: HT29 colon
MDA-MB-435 = system: MDA-MB-435
PC-3 prostate = system: PC-3 prostate
OVCAR-4 ovarian = system: OVCAR-4 ovarian
SR leukemia = system: SR leukemia
OVCAR-3 ovarian = system: OVCAR-3 ovarian
K-562 leukemia = system: K-562 leukemia
SF-268 CNS = system: SF-268 CNS
COLO 205 colon = system: COLO 205 colon
LOX IMVI melanoma = system: LOX IMVI melanoma
UO-31 renal = system: UO-31 renal
NCI-H226 lung = system: NCI-H226 lung
SW-620 colon = system: SW-620 colon
CCRF-CEM leukemia = system: CCRF-CEM leukemia
SF-539 CNS = system: SF-539 CNS
HCC-2998 colon = system: HCC-2998 colon

`CCC1c2[nH]c3ccccc3c2C[C@H]2C(=O)NC(COC(C)(C)C)C(=O)N12` (some centres not stated) gave a TGI (MCF7 breast) of over 100 µM, a TGI (UACC-257 melanoma) of over 100 µM and a TGI (IGROV1 ovarian) of over 100 µM. For the same molecule, the TGI (DU-145 prostate) was over 100 µM, the TGI (NCI/ADR-RES ovarian) was over 100 µM and the TGI (MALME-3M melanoma) was 94.7 µM. For the same molecule, the TGI (HL-60(TB) leukemia) was 60.9 µM, the TGI (BT-549 breast) was over 100 µM and the TGI (SNB-75 CNS) was 78.6 µM. It also gave a TGI (A549 NSCLC) of over 100 µM, a TGI (OVCAR-5 ovarian) of over 100 µM and a TGI (TK-10 renal) of over 100 µM. For the same molecule, the TGI (NCI-H460 lung) was over 100 µM, the TGI (MDA-MB-231 breast) was over 100 µM and the TGI (HOP-92 NSCLC) was 90.6 µM. For the same molecule, the TGI (HS 578T breast) was over 100 µM, the TGI (M14 melanoma) was over 100 µM and the TGI (EKVX NSCLC) was over 100 µM. For the same molecule, the TGI (KM12 colon) was over 100 µM, the TGI (RPMI-8226 leukemia) was over 100 µM and the TGI (NCI-H522 lung) was over 100 µM. The TGI (SK-MEL-5 melanoma) was 93.3 µM, the TGI (HCT-15 colon) was over 100 µM and the TGI (SF-295 CNS) was 65.4 µM. The TGI (ACHN renal) was over 100 µM, the TGI (HOP-62 NSCLC) was over 100 µM and the TGI (SK-MEL-2 melanoma) was 85 µM. The TGI (SK-OV-3 ovarian) was over 100 µM, the TGI (SNB-19 CNS) was over 100 µM and the TGI (MOLT-4 leukemia) was 98.5 µM. For the same molecule, the TGI (UACC-62 melanoma) was over 100 µM, the TGI (T-47D breast) was over 100 µM and the TGI (A498 renal) was over 100 µM. It also gave a TGI (HCT-116 colon) of over 100 µM, a TGI (CAKI-1 renal) of over 100 µM and a TGI (786-0 renal) of over 100 µM. The TGI (SK-MEL-28 melanoma) was over 100 µM, the TGI (OVCAR-8 ovarian) was over 100 µM and the TGI (RXF 393 renal) was over 100 µM. The TGI (NCI-H23 lung) was over 100 µM, the TGI (SN12C renal) was over 100 µM and the TGI (U251 CNS) was over 100 µM. For the same molecule, the TGI (HT29 colon) was over 100 µM, the TGI (MDA-MB-435) was over 100 µM and the TGI (PC-3 prostate) was 91.9 µM. It also gave a TGI (OVCAR-4 ovarian) of over 100 µM, a TGI (SR leukemia) of over 100 µM and a TGI (OVCAR-3 ovarian) of over 100 µM. It also gave a TGI (K-562 leukemia) of over 100 µM, a TGI (SF-268 CNS) of over 100 µM and a TGI (COLO 205 colon) of 37.6 µM. It also gave a TGI (LOX IMVI melanoma) of over 100 µM, a TGI (UO-31 renal) of over 100 µM and a TGI (NCI-H226 lung) of over 100 µM. The TGI (SW-620 colon) was over 100 µM.
For `Cc1n(Cc2ccc3ccccc3c2)cc[n+]1Cc1ccc2ccccc2c1`, the GI50 (MCF7 breast) was 1.1 µM, the TGI (MCF7 breast) was 3.33 µM and the GI50 (UACC-257 melanoma) was 0.588 µM. For the same molecule, the TGI (UACC-257 melanoma) was 2.58 µM, the GI50 (IGROV1 ovarian) was 0.797 µM and the TGI (IGROV1 ovarian) was 2.87 µM. It also gave a GI50 (DU-145 prostate) of 1.87 µM, a TGI (DU-145 prostate) of 12.1 µM and a GI50 (NCI/ADR-RES ovarian) of 41.3 µM. For the same molecule, the TGI (NCI/ADR-RES ovarian) was over 100 µM, the GI50 (MALME-3M melanoma) was 0.627 µM and the TGI (MALME-3M melanoma) was 2.56 µM. The GI50 (HL-60(TB) leukemia) was 0.427 µM, the TGI (HL-60(TB) leukemia) was 2.01 µM and the GI50 (BT-549 breast) was 0.929 µM. The TGI (BT-549 breast) was 3.01 µM, the GI50 (SNB-75 CNS) was 0.626 µM and the TGI (SNB-75 CNS) was 6.14 µM. It also gave a GI50 (A549 NSCLC) of 3.81 µM, a TGI (A549 NSCLC) of 21.3 µM and a GI50 (OVCAR-5 ovarian) of 1.5 µM. For the same molecule, the TGI (OVCAR-5 ovarian) was 5.81 µM, the GI50 (TK-10 renal) was 1.77 µM and the TGI (TK-10 renal) was 5.1 µM. The GI50 (NCI-H460 lung) was 1.59 µM, the TGI (NCI-H460 lung) was 10.7 µM and the GI50 (MDA-MB-231 breast) was 1.03 µM. It also gave a TGI (MDA-MB-231 breast) of 2.43 µM, a GI50 (HOP-92 NSCLC) of 0.673 µM and a TGI (HOP-92 NSCLC) of 3.64 µM. For the same molecule, the GI50 (HS 578T breast) was 1.6 µM, the TGI (HS 578T breast) was 11.3 µM and the GI50 (M14 melanoma) was 1.12 µM. For the same molecule, the TGI (M14 melanoma) was 3.46 µM, the GI50 (EKVX NSCLC) was 2.32 µM and the TGI (EKVX NSCLC) was 17.1 µM. For the same molecule, the GI50 (KM12 colon) was 0.592 µM, the TGI (KM12 colon) was 2.04 µM and the GI50 (RPMI-8226 leukemia) was 0.405 µM. It also gave a TGI (RPMI-8226 leukemia) of 1.89 µM, a GI50 (NCI-H522 lung) of 0.256 µM and a TGI (NCI-H522 lung) of 1.81 µM. For the same molecule, the GI50 (SK-MEL-5 melanoma) was 0.628 µM, the TGI (SK-MEL-5 melanoma) was 1.87 µM and the GI50 (HCT-15 colon) was 11.3 µM. For the same molecule, the TGI (HCT-15 colon) was 25.1 µM, the GI50 (SF-295 CNS) was 1.83 µM and the TGI (SF-295 CNS) was 7.21 µM. For the same molecule, the GI50 (ACHN renal) was 10.9 µM, the TGI (ACHN renal) was 23.8 µM and the GI50 (HOP-62 NSCLC) was 1.6 µM. The TGI (HOP-62 NSCLC) was 8.35 µM, the GI50 (SK-OV-3 ovarian) was 1.81 µM and the TGI (SK-OV-3 ovarian) was 7.38 µM. The GI50 (SNB-19 CNS) was 0.676 µM, the TGI (SNB-19 CNS) was 3.13 µM and the GI50 (MOLT-4 leukemia) was 1.76 µM. It also gave a TGI (MOLT-4 leukemia) of 5.61 µM, a GI50 (UACC-62 melanoma) of 0.843 µM and a TGI (UACC-62 melanoma) of 2.42 µM. The GI50 (T-47D breast) was 0.438 µM, the TGI (T-47D breast) was 5.12 µM and the GI50 (A498 renal) was 0.47 µM. It also gave a TGI (A498 renal) of 4.61 µM, a GI50 (CCRF-CEM leukemia) of 1.87 µM and a TGI (CCRF-CEM leukemia) of 7.19 µM. For the same molecule, the GI50 (HCT-116 colon) was 1.07 µM, the TGI (HCT-116 colon) was 4.4 µM and the GI50 (786-0 renal) was 2.25 µM. It also gave a TGI (786-0 renal) of 8.52 µM, a GI50 (SK-MEL-28 melanoma) of 1.02 µM and a TGI (SK-MEL-28 melanoma) of 3.05 µM. The GI50 (OVCAR-8 ovarian) was 1.21 µM, the TGI (OVCAR-8 ovarian) was 10.3 µM and the GI50 (RXF 393 renal) was 0.857 µM. The TGI (RXF 393 renal) was 3.4 µM, the GI50 (NCI-H23 lung) was 0.717 µM and the TGI (NCI-H23 lung) was 2.93 µM. The GI50 (SN12C renal) was 1.22 µM, the TGI (SN12C renal) was 10.2 µM and the GI50 (U251 CNS) was 0.818 µM. For the same molecule, the TGI (U251 CNS) was 7.98 µM, the GI50 (SF-539 CNS) was 1.37 µM and the TGI (SF-539 CNS) was 7.14 µM. The GI50 (HCC-2998 colon) was 0.717 µM, the TGI (HCC-2998 colon) was 2.27 µM and the GI50 (HT29 colon) was 0.521 µM. For the same molecule, the TGI (HT29 colon) was 3.02 µM, the GI50 (MDA-MB-435) was 0.544 µM and the TGI (MDA-MB-435) was 2.38 µM. It also gave a GI50 (PC-3 prostate) of 1.06 µM, a TGI (PC-3 prostate) of 11.6 µM and a GI50 (OVCAR-4 ovarian) of 0.381 µM. The TGI (OVCAR-4 ovarian) was 6.36 µM, the GI50 (SR leukemia) was 0.552 µM and the TGI (SR leukemia) was 2.47 µM. The GI50 (OVCAR-3 ovarian) was 0.521 µM, the TGI (OVCAR-3 ovarian) was 2.06 µM and the GI50 (K-562 leukemia) was 0.478 µM. It also gave a TGI (K-562 leukemia) of 4.51 µM, a GI50 (SF-268 CNS) of 1.14 µM and a TGI (SF-268 CNS) of 8.69 µM. It also gave a GI50 (COLO 205 colon) of 0.369 µM, a TGI (COLO 205 colon) of 1.59 µM and a GI50 (LOX IMVI melanoma) of 0.951 µM. For the same molecule, the TGI (LOX IMVI melanoma) was 2.2 µM, the GI50 (UO-31 renal) was 9.26 µM and the TGI (UO-31 renal) was 22 µM. For the same molecule, the GI50 (NCI-H226 lung) was 1.85 µM, the TGI (NCI-H226 lung) was 10.4 µM and the GI50 (SW-620 colon) was 1.77 µM. For the same molecule, the TGI (SW-620 colon) was 11.7 µM.
